Test results from US20190248739A1 (NEWLINK GENETICS CORPORATION, priority 2015, published 2019).
Counter-ions that a name gives are not always drawn. Like-named read-outs stand apart in the source and are kept apart here.

Tests used:
[1] = pharmacokinetic testing of indoximod prodrugs in liquid formulation in rats; type: in vivo; conditions: oral solution, 50 mg/kg
[2] = pharmacokinetic testing of indoximod prodrugs in liquid formulation in mice; conditions: for change in indoximod AUC versus indoximod / change in indoximod Cmax versus indoximod: mice, oral, 50 mg/kg; for AUC(0-inf) / Cmax / Tmax / half-life: mouse, plasma, po; for % Change in Norm. Cmax / % Increase in Norm AUC: vs indoximod, Mouse, PO solution, salt form FB
Method: Blood samples (0.1-0.2 mL) were collected from the femoral artery port from rats or by retro-orbital bleeding from mice and plasma was immediately collected by centrifugation and stored on dry ice to avoid prodrug hydrolysis after plasma collection. […] The pharmacokinetic parameters reflect the average of individual parameter values obtained from each individual rat (n) or one common parameter from a single pharmacokinetic curve derived from blood samples obtained from a group of mice (n).

[3] = pharmacokinetic testing of indoximod prodrug salts in solid capsule formulation in cynomolgous monkeys
[4] = pharmacokinetic testing of indoximod prodrug salts in solid capsule formulation in rats; type: in vivo; conditions: for % Change Cmax / % Change in AUC: vs indoximod free base
Method: These blends were formulated so that each capsule contained the same molar dose of each prodrug. […] The composition and uniformity of a representative sample of capsules from each batch was verified by weight and by LC-MS/MS to determine the average indoximod or prodrug content.
(§1) Rats were fasted 16 h prior to dosing to eliminate any confounding food effects, and food was returned 2 h after dosing.

[5] = human pharmacokinetics of oral indoximod; type: in vivo; conditions: plasma
[6] = pharmacokinetic testing of indoximod salts in capsule formulation in rats; type: in vivo; conditions: capsules
Method: Three dose levels were investigated: 37, 185 or 500 μmol/kg.
Capsules were manually filled and the composition uniformity of a representative sample of capsules from each batch was verified by weight and by LC-MS/MS to determine the average indoximod content.
as §1

[7] = crossover pharmacokinetic study of indoximod free base, salts and SDD in cynomolgus monkeys; type: in vivo; conditions: for AUC(0-t): read-out: AUC(0 −> 48 h)
Method: The SDD suspension formulations were prepared in 0.5% methylcellulose (Methocel).

[8] = hygroscopicity and stability of indoximod and its salts; type: physicochemical; conditions: for Hygroscopicity (0-80% RH): Table 2, in % (unit assumed)
[9] = indoximod plasma exposure in murine antitumor experiments; type: in vivo; conditions: mice; for exposure: ~500 mg/kg/day or oral 200 mg/kg bid
[10] = solubility of indoximod and its salts in water, buffers and SGF; type: physicochemical; conditions: for pH of the SGF solution (in brackets) / Solubility (25° C., mg/mL) SGF / pH of the water solution (in brackets) / Solubility (25° C., mg/mL) Water: 25° C.; for pH of the SGF solution (in brackets): SGF solubility test; for pH of the water solution (in brackets): water solubility test
[11] = tested on: ectopic melanoma, colon and lung tumors, breast tumor models; conditions: cited from earlier work
[12] = in-vitro dissolution test of SDD formulations in simulated gastric buffer (GB) and simulated intestinal fluid (SIF); type: physicochemical
Method: In this study, SDD formulations were made by two methods: hot process spray dry—formulation solution heated up to 110° C. before spraying dry, and basic spray dry—formulation pH raised up to ˜11.5 (room temperature) before spraying dry. The performance of each SDD formulation was investigated by in-vitro dissolution test in simulated gastric buffer (GB) and simulated intestinal fluid (SIF). […] In addition, higher drug load in the powder was preferred since it could decrease the dose amount of the final formulation. Based on all these criteria, two SDD formulations were selected for further in vivo PK studies in monkeys.

[13] = indoximod, cynomolgous monkeys, oral capsules, dose 275 μmol/kg, salt form free base
[14] = Table 10.1, rats, oral capsules, dose 37 μmol/kg, salt form free base
[15] = Table 10.1, rats, oral capsules, dose 185 μmol/kg, salt form free base
[16] = Table 10.1, rats, oral capsules, dose 500 μmol/kg, salt form free base
[17] = Table 10.2, indoximod, rats, oral capsules, dose 37 μmol/kg, salt form free base
[18] = Table 10.2, indoximod, rats, oral capsules, dose 185 μmol/kg, salt form free base
[19] = Table 10.2, indoximod, rats, oral capsules, dose 500 μmol/kg, salt form free base
[20] = Table 10.2, rats, oral capsules, dose 37 μmol/kg, salt form free base
[21] = Table 10.2, rats, oral capsules, dose 185 μmol/kg, salt form free base
[22] = Table 10.2, rats, oral capsules, dose 500 μmol/kg, salt form free base
[23] = 37 μmol/kg, listed as Indoximod hydrochloride salt
[24] = 185 μmol/kg, listed as Indoximod hydrochloride salt
[25] = 500 μmol/kg, listed as Indoximod hydrochloride salt
[26] = both dose levels (275 and 825 μmol/kg)

CC(C)OC(=O)[C@H](N)Cc1cn(C)c2ccccc12 [NLG-1284, isopropyl 1-methyl-D-tryptophanate hydrochloride]
change in indoximod AUC versus indoximod [1]: does not produce a significant increase
change in indoximod Cmax versus indoximod [1]: does not produce a significant increase
change in indoximod AUC versus indoximod [2]: significant increase
change in indoximod Cmax versus indoximod [2]: significant increase

Cn1cc(C[C@@H](N)C(=O)O)c2ccccc21 [indoximod, 1-methyl-D-tryptophan, reference compound]
AUC(0->∞) ([3]; indoximod, cynomolgous monkeys, oral capsules, dose 92 μmol/kg, salt form free base): 38.5 ± 4 µM·h
AUC(0->∞) [3, 13]: 74.9 ± 5 µM·h
Cmax [3, 13]: 17.5 ± 3 µM
Cmax ([3]; monkey, blood, po, 92 umol/kg): 8.2 ± 0.4 µM
AUC(0-inf) ([3]; monkey, blood, po, 875 umol/kg): 165 ± 52 µM·h
Cmax ([3]; monkey, blood, po, 875 umol/kg): 27.8 ± 8 µM
% Change Cmax [4, 14]: 0%
% Change in AUC [4, 14]: 0%
% Change Cmax [4, 15]: 0%
% Change in AUC [4, 15]: 0%
% Change Cmax [4, 16]: 0%
% Change in AUC [4, 16]: 0%
AUC(0->∞) [4, 17]: 390 ± 166 µM·h
Cmax [4, 17]: 15.9 ± 8 µM
AUC(0->∞) [4, 18]: 1080 ± 478 µM·h
Cmax [4, 18]: 20.8 ± 4 µM
AUC(0->∞) [4, 19]: 2871 ± 1379 µM·h
Cmax [4, 19]: 76.2 ± 25 µM
% Change Cmax [4, 20]: 0%
% Change in AUC [4, 20]: 0%
% Change Cmax [4, 21]: 0%
% Change in AUC [4, 21]: 0%
% Change Cmax [4, 22]: 0%
% Change in AUC [4, 22]: 0%
Cmax ([4]; Table 10.3, indoximod, rats, oral capsules, dose 37 μmol/kg, salt form free base): 15.9 ± 8 µM
Cmax ([4]; Table 10.3, indoximod, rats, oral capsules, dose 185 μmol/kg, salt form free base): 20.8 ± 4 µM
Cmax ([4]; Table 10.3, indoximod, rats, oral capsules, dose 500 μmol/kg, salt form free base): 76.2 ± 25 µM
AUC(0-inf) ([4]; rat, plasma, po, 37 umol/kg): 390 ± 166 µM·h
Cmax ([4]; rat, plasma, po, 37 umol/kg): 15.9 ± 8 µM
AUC(0-inf) ([4]; rat, plasma, po, 185 umol/kg): 1080 ± 478 µM·h
Cmax ([4]; rat, plasma, po, 185 umol/kg): 20.8 ± 4 µM
AUC(0-inf) ([4]; rat, plasma, po, 500 umol/kg): 2870 ± 1380 µM·h
Cmax ([4]; rat, plasma, po, 500 umol/kg): 76.2 ± 25 µM
Tmax [5]: ~3 h
half-life [5]: ~10 h
AUC(0-t) ([5]; patients, up to 800 mg/dose, read-out: drug exposure (AUC(0-last))): ~100 µM·h
Cmax ([5]; po, 800 mg/dose, patients, about 800 mg/dose, read-out: maximum plasma concentration (Cmax)): 15 µM
AUC(0-inf) ([5]; ~800 mg/dose): 100 µM·h
AUC(0-inf) ([6]; rat, plasma, po, 37 umol/kg): 390 ± 166 µM·h
AUC(0-inf) ([6]; rat, plasma, po, 185 umol/kg): 1080 ± 478 µM·h
Cmax ([6]; rat, plasma, po, 185 umol/kg): 20.8 ± 4 µM
AUC(0-inf) ([6]; rat, plasma, po, 500 umol/kg): 2870 ± 1380 µM·h
Cmax ([7]; male, cynomolgus monkey, plasma, po, 275 umol/kg): 12.9 ± 3.3 µM
AUC(0-t) ([7]; male, cynomolgus monkey, plasma, po, 275 umol/kg, oral, 275 μmol/kg): 66 ± 17 µM·h
Cmax ([7]; male, cynomolgus monkey, plasma, po, 825 umol/kg): 25.6 ± 12.8 µM
AUC(0-t) ([7]; male, cynomolgus monkey, plasma, po, 825 umol/kg, oral, 825 μmol/kg): 127 ± 73 µM·h
hygroscopicity (weight gain) ([8]; 0-80%RH): 0.09%
stability in solution ([8]; 0.1 N HCl and 50 mM phosphate buffers pH 2-8, 25° C., 24 hours): stable
chemical stability of the solid powder form ([8]; 25° C/60%RH, 40° C., 40° C/75%RH, 60° C. and 70° C. for 4 weeks): chemically stable
Hygroscopicity (0-80% RH) ([8]; listed as Free base): 0.09
exposure [9]: greater than 300 μM.h
exposure ([9]; listed as Indoximod): > 300 µM·h
Cmax ([9]; mouse, plasma, drinking water 3 mg/mL (~500 mg/kg/day) or oral 200 mg/kg bid): > 20 µM
AUC(0-inf) ([2]; 10 mg/kg): 34 µM·h
Cmax ([2]; 10 mg/kg): 9 µM
Tmax ([2]; 10 mg/kg): 0.5 h
half-life ([2]; 10 mg/kg): 1.8 h
AUC(0-inf) ([2]; 100 mg/kg): 325 µM·h
Cmax ([2]; 100 mg/kg): 43 µM
Tmax ([2]; 100 mg/kg): 1 h
half-life ([2]; 100 mg/kg): 3.5 h
% Change in Norm. Cmax ([2]; dose 10 mg/kg): 0%
% Increase in Norm AUC ([2]; dose 10 mg/kg): 0%
% Change in Norm. Cmax ([2]; dose 100 mg/kg): 0%
% Increase in Norm AUC ([2]; dose 100 mg/kg): 0%
pH of the SGF solution (in brackets) ([10]; listed as Free base): 2.32
Solubility (25° C., mg/mL) SGF ([10]; listed as Free base): 3.6 mg/mL
pH of the water solution (in brackets) ([10]; listed as Free base): 6.03
Solubility (25° C., mg/mL) Water ([10]; listed as Free base): 1.8 mg/mL
solubility ([10]; aqueous solutions, buffered or un-buffered, pH 2, aqueous buffer, pH 2-8): 1.8 to 2 mg/mL
antitumor effect ([11]; in combination with chemotherapy): demonstrates antitumor effects
antitumor effect ([11]; melanoma models, combination with anti-CTLA4 (ipilimumab)): synergistic antitumor effect
UltraC90 ([12]; SIF, 90 min, after ultracentrifugation): 1,849 μg/mL
UltraC1200 ([12]; SIF, 1200 min, after ultracentrifugation): 1,854 μg/mL
CmaxGB ([12]; maximum indoximod concentration, dissolved in GB for 30 min): 5,154 μg/mL
Cmax90 ([12]; maximum indoximod concentration, dissolved in SIF for 90 min): 2,213 μg/mL

CCOC(=O)[C@H](N)Cc1cn(C)c2ccccc12 [NLG-1283, ethyl 1-methyl-D-tryptophanate hydrochloride]
change in indoximod AUC versus indoximod [1]: increase
change in indoximod Cmax versus indoximod [1]: increase
change in indoximod AUC versus indoximod [2]: decrease
change in indoximod Cmax versus indoximod [2]: decrease

Cn1cc(C[C@@H](N)C(=O)O)c2ccccc21 [indoximod HCl, (R)-1-carboxy-2-(1-methyl-1H-indol-3-yl)ethan-1-aminium chloride]
% Increase over indoximod Free Base (AUC) ([6]; 37 μmol/kg): −23%
% Increase over indoximod Free Base (Cmax) ([6]; 37 μmol/kg): −40%
AUC(0 −> ∞) ([6]; 37 μmol/kg): 299 ± 77 µM·h
Cmax ([6]; 37 μmol/kg): 9.5 ± 2 µM
% Increase over indoximod Free Base (AUC) [6, 23]: did not show a significant change
% Increase over indoximod Free Base (Cmax) [6, 23]: non-statistically significant decrease
% Increase over indoximod Free Base (AUC) ([6]; 185 μmol/kg): 38%
% Increase over indoximod Free Base (Cmax) ([6]; 185 μmol/kg): 84%
AUC(0 −> ∞) ([6]; 185 μmol/kg): 1493 ± 728 µM·h
Cmax ([6]; 185 μmol/kg): 38.4 ± 10 µM
% Increase over indoximod Free Base (AUC) [6, 24]: significant increase
% Increase over indoximod Free Base (Cmax) [6, 24]: statistically significant increase
% Increase over indoximod Free Base (AUC) ([6]; 500 μmol/kg): −6%
% Increase over indoximod Free Base (Cmax) ([6]; 500 μmol/kg): −42%
AUC(0 −> ∞) ([6]; 500 μmol/kg): 2706 ± 847 µM·h
Cmax ([6]; 500 μmol/kg): 44.4 ± 8 µM
% Increase over indoximod Free Base (AUC) [6, 25]: did not show a significant change
% Increase over indoximod Free Base (Cmax) [6, 25]: statistically significant decrease
increase in Cmax compared to indoximod free base capsules [7, 26]: 31-65%
increase in exposure compared to indoximod free base capsules [7, 26]: 37-53%
% Increase over indoximod FB (AUC) ([7]; oral, 275 μmol/kg): 53%
% Increase over indoximod FB (Cmax) ([7]; oral, 275 μmol/kg): 65%
AUC(0 −> 48 h) ([7]; oral, 275 μmol/kg): 101 ± 18 µM·h
Cmax ([7]; oral, 275 μmol/kg): 21.3 ± 8.9 µM
% Increase over indoximod FB (AUC) ([7]; oral, 825 μmol/kg): 37%
% Increase over indoximod FB (Cmax) ([7]; oral, 825 μmol/kg): 31%
AUC(0 −> 48 h) ([7]; oral, 825 μmol/kg): 173 ± 75 µM·h
Cmax ([7]; oral, 825 μmol/kg): 33.4 ± 12 µM
Hygroscopicity (0-80% RH) ([8]; listed as HCl Salt): 0.017
pH of the SGF solution (in brackets) ([10]; listed as HCl Salt): 1.03
Solubility (25° C., mg/mL) SGF ([10]; listed as HCl Salt): > 200 mg/mL
Solubility (25° C., mg/mL) SGF ([10]; listed as hydrochloride salt): > 200 mg/mL
pH of the water solution (in brackets) ([10]; listed as HCl Salt): 1.06
Solubility (25° C., mg/mL) Water ([10]; listed as HCl Salt): > 200 mg/mL
Solubility (25° C., mg/mL) Water ([10]; listed as hydrochloride salt): > 200 mg/mL
